# Experimental data from US20150190369A1, “QUERCETIN-3-GLUCOSIDE AND USES THEREOF” (priority 2012, published 2015).
# “Also recorded” adds a separate entry of the source.
# Key:
# [1] = tested on: PCSK9; experiment: ELISA for PCSK9 secreted into medium by MIN6 β-cells; assay type: cell-based, mouse; conditions: MIN6, 24 h, different concentrations of Q3G
# Experimental: FIG. 15 a graph illustrating the effect of exposure to Q3G on PCSK9 secretion in MIN6 β-cells. MIN6 cells were incubated for 24 h in the presence of the specified concentration of Q3G. Media were collected and assayed by ELISA for PCSK9 content.
# (§1) Mouse insulinoma MIN6 cells were cultured in a 5% CO2-95% air atmosphere at 37° C. in DMEM medium containing 10% heat-inactivated fetal bovine serum, 1 mM Na-pyruvate, 2 mM L-glutamine, 25 mM D-glucose, and 28 μM β-mercaptoethanol. Q3G at a specific final concentration was supplemented to the culture medium and incubation was conducted for a selected length of time. Media were collected, spun at 600 g to sediment suspended cells, supplemented with 0.5 volumes of 3×RIPA-PIC (1×: 50 mM Tris-HCl, pH 8, 150 mM NaCl, 1% NP-40, 0.5% Na-deoxycholate and 0.1% SDS and PIC). Cells were lysed in 1×RIPA-PIC for immuno-blotting, or in RNA extraction buffer for qRT-PCR.
# The assays for PCSK9 and insulin were conducted as prescribed by kit manufacturers, using a Thermo Scientific plate reader. For example, PCSK9 levels in conditioned media were measured using the human PCSK9 ELISA kit from Circulex, as specified the manufacturer. […] After 15 min, the reaction was stopped with […] and the absorbance of the reaction mixtures measured by spectrophotometry at 450 nm. […]
# [2] = tested on: LDLR mRNA; experiment: qRT-PCR for LDLR mRNA in MIN6 β-cells; assay type: cell-based, mouse; design: increase in LDLR mRNA: dose or concentration left out as unconfirmed; conditions: MIN6, 24 h
# Experimental: as §1
# (§2) For the mouse studies, the levels of specific mRNAs were quantified in a PCR-based fluorogenic assay using the Taqman technology (Holland et al., 1991). Briefly, total RNA was extracted using the RNeasy extraction kit and reverse-transcribed into cDNA using random hexameric primers and the Superscript II RNase H-Reverse Transcriptase. The cDNA was used as a template to produce PCR amplicons using FastStart TaqMan ProbeMaster-Rox master mix, primer pairs and the appropriate fluorescent probes) in the Stratagene Mx3005P thermocycler. Standard curves were established using varying amounts of pre-quantified amplicons of each transcript. The level of mRNA for the TATA-box binding protein (TBP) was used for normalization.
# (§3) MIN6 β-cells were incubated for 24 h in the presence of different concentrations of Q3G. Total RNA was extracted and analyzed by qRT-PCR for the levels of mRNA for PCSK9, LDLR, ABCA1 and ABCG1.
# [3] = tested on: PCSK9 mRNA; experiment: qRT-PCR for PCSK9 mRNA in MIN6 β-cells; assay type: cell-based, mouse; design: increase in PCSK9 mRNA: dose or concentration left out as unconfirmed; conditions: MIN6, 24 h
# Experimental: as §1, §2, §3
# [4] = tested on: Huh7 cells; experiment: LDL uptake assay with bodipy-LDL; assay type: cell-based, human; conditions: Huh7, 5 μM Q3G for 24 h
# Experimental: Huh7 cells were seeded in 96-well black-bottom plates at 4×10^4 cells/well in 0.1 ml complete medium and allowed to attach by overnight incubation at 37° C. They were rinsed with PBS-D, overlaid with 0.1 ml of DMEM/10% LPDS and incubated at 37° C. for 24 h. After a PBS-D rinse, they were overlaid with 0.1 ml DMEM/0.5% LPDS containing or not 5 μM Q3G and incubated 37° C. for 24 h. To assay for LDL uptake ability, cells were rinsed, first with pre-warmed (37° C.) PBS-D, then with pre-warmed DMEM/0.5% LPDS. They were overlaid with 75 μl of the latter medium containing […] bodipy-LDL, and then incubated at 37° C. for 15 min or 30 min to allow LDLR-mediated endocytosis of the fluorescent lipoprotein. […] Intracellular fluorescence was measured in a SpectraMax Gemini XS fluorescence plate reader (Molecular Devices) at the excitation and emission wavelengths of 485 and 535 nm, respectively. Non-specific fluorescence was measured by incubating cells in medium containing bodipy-LDL (20 μg/ml) and a 12.5× excess of non-fluorescent LDL (250 μg/ml).
# To verify this prediction, cells were incubated overnight in medium supplemented with LPDS to promote expression of the LDLR; they were then treated with 5 μM Q3G for 24 h and exposed to fluorescent bodipy-LDL for 15 or 30 min; after washing, accumulated intracellular LDL was measured by fluorescence spectrometry.
smiles,measurement,setting,value
"O=c1c(O[C@@H]2O[C@H](CO)[C@@H](O)[C@H](O)[C@H]2O)c(-c2ccc(O)c(O)c2)oc2cc(O)cc(O)c12 [Q3G, quercetin-3-O-β-D-glucoside]",PCSK9 in the medium (secretion),[1],paralleled that of the transcript; also recorded: stimulates
same,effect on LDL-receptor mRNA levels,[2]; Q3G 8 mM and above,increased
same,effect on LDLR mRNA levels,[2]; Q3G up to 4 mM,does not affect
same,increase in LDLR mRNA,[2]; maximum Q3G concentration used,1.8 fold
same,effect on PCSK9 mRNA levels,[3]; Q3G 8 mM and above,increased
same,effect on PCSK9 mRNA levels,[3]; Q3G up to 4 mM,does not affect
same,increase in PCSK9 mRNA,[3]; maximum Q3G concentration used,2.5 fold
same,accumulated intracellular LDL versus untreated cells,[4]; bodipy-LDL for 15 min,4 fold
same,accumulated intracellular LDL versus untreated cells,[4]; bodipy-LDL for 30 min,2.5 fold
